Test results as given in paper PMC3156385 (Chemical research in toxicology, 2011).
Like-named read-outs stand apart in the source and are kept apart here.

Columns and labels:
P450 1B1 [1] = target: T1, P450 1B1 (Homo sapiens, UniProt Q16678); assay: Inhibition of P450 1B1-dependent EROD activity; format: biochemical
T1 sequence (Q16678 1-543): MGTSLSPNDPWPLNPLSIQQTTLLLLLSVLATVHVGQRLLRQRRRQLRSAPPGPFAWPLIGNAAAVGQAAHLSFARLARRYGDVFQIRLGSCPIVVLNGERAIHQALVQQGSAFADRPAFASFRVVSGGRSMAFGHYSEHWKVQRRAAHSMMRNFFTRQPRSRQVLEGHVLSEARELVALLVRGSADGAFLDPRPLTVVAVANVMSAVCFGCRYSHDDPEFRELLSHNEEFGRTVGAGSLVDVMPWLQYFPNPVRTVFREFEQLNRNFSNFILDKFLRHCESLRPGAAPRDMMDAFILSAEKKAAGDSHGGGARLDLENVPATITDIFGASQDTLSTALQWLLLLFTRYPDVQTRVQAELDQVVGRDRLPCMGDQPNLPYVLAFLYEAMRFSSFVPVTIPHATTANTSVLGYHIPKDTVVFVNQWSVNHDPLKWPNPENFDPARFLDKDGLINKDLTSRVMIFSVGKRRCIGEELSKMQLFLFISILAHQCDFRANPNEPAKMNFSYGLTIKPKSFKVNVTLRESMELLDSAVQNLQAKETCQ

P450 1A1 = target: T2, P450 1A1 (Homo sapiens, UniProt P04798); assay: Spectral binding titration with purified recombinant P450 1A1; details: for ΔAmax/Ks / ΔAmax: Reverse Type I binding, 1 µM P450; for ΔAmax: means ± SE
T2 sequence (P04798 1-512): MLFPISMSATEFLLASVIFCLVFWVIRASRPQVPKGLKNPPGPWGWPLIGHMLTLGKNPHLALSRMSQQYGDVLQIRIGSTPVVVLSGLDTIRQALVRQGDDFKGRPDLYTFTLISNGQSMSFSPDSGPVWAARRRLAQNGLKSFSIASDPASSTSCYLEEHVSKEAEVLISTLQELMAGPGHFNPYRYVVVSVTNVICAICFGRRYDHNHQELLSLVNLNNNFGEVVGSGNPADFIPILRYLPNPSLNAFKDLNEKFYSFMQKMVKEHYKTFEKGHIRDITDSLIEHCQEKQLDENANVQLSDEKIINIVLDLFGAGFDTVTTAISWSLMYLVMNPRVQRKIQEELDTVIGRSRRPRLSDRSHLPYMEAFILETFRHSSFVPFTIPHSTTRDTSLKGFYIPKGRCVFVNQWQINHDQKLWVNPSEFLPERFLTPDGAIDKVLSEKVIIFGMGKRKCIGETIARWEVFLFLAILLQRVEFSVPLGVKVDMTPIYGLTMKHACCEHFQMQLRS

P450 2A6 [2] = target: T3, P450 2A6 (Homo sapiens, UniProt P11509); assay: Inhibition of P450 2A6-dependent coumarin 7-hydroxylation; format: biochemical
T3 sequence (P11509 1-494): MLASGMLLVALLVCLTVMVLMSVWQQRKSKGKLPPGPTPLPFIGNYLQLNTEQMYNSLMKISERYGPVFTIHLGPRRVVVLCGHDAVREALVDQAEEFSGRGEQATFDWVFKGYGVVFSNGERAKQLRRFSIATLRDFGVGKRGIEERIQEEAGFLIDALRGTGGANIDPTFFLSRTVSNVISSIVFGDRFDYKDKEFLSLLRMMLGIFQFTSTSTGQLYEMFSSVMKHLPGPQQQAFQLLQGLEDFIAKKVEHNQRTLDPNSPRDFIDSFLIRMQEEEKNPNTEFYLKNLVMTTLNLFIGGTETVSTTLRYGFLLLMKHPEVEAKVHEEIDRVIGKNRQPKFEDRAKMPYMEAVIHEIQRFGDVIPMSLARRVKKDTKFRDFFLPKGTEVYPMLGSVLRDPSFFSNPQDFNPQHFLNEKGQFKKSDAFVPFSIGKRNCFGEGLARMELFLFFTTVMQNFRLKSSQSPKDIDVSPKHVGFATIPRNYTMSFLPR

P450 1A2 = target: T4, P450 1A2 (Homo sapiens, UniProt P05177); assay: Spectral binding titration with purified recombinant P450 1A2; details: for ΔAmax/Ks / ΔAmax: Reverse Type I binding, 1 µM P450; for ΔAmax: means ± SE
T4 sequence (P05177 1-516): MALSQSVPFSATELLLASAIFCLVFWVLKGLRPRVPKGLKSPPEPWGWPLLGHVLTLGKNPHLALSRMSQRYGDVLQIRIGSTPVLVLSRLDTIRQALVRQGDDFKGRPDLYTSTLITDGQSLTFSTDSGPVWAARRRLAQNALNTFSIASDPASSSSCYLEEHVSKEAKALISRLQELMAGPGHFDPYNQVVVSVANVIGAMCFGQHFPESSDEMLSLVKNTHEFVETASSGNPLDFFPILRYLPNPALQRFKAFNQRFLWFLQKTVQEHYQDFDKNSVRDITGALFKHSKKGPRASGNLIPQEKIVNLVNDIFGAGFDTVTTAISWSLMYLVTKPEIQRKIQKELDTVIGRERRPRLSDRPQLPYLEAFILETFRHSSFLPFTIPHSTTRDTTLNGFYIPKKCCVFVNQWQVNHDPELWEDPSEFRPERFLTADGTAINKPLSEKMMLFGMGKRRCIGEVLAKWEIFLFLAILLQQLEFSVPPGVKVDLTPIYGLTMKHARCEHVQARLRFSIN

P450 1B1 [3] = target: T1, P450 1B1; assay: Spectral binding titration with purified recombinant P450 1B1; details: for ΔAmax/Ks / ΔAmax: Reverse Type I binding, 1 µM P450; for ΔAmax: means ± SE
P450 2A6 [4] = target: T3, P450 2A6; assay: Spectral binding titration with purified recombinant P450 2A6; details: for ΔAmax/Ks / ΔAmax: Type I binding, 1 µM P450; for ΔAmax: means ± SE
P450 2A13 = target: T5, P450 2A13 (Homo sapiens, UniProt Q16696); format: biochemical
T5 sequence (Q16696 1-494): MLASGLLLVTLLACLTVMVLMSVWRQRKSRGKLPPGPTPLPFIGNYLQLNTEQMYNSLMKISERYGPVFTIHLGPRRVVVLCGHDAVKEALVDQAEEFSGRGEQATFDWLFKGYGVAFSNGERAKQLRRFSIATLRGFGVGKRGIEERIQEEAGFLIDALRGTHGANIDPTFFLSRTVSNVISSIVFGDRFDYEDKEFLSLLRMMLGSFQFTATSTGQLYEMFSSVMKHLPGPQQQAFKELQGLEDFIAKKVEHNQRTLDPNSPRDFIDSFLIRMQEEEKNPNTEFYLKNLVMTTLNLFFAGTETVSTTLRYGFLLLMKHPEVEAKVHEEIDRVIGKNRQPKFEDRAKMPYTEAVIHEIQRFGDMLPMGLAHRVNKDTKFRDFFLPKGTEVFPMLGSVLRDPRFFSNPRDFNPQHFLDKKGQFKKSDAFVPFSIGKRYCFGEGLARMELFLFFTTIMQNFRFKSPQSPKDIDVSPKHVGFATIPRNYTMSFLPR

N#C[Se]Cc1ccccc1 [BSC, benzyl selenocyanate]
IC50 (P450 1B1 [1]): 0.27 ± 0.031 µM | Kd (P450 1A1): 23 ± 4.1 µM | ΔAmax/Ks (P450 1A1): 0.61 × 10^−3 | ΔAmax (P450 1A1): 14 ± 1.0 × 10^−3 | type of binding spectra (P450 1A1; difference spectra): Reverse Type I | IC50 (P450 2A6 [2]): 4.3 ± 0.36 µM | Kd (P450 1A2): 11 ± 2.3 µM | ΔAmax/Ks (P450 1A2): 0.88 × 10^−3 | ΔAmax (P450 1A2): 9.5 ± 0.57 × 10^−3 | Kd (P450 1B1 [3]): 5.3 ± 0.96 µM | ΔAmax/Ks (P450 1B1 [3]): 3.60 × 10^−3 | ΔAmax (P450 1B1 [3]): 19 ± 0.11 × 10^−3 | Kd (P450 2A6 [4]): 2 ± 0.14 µM | ΔAmax/Ks (P450 2A6 [4]): 32.00 × 10^−3 | ΔAmax (P450 2A6 [4]): 66 ± 0.93 × 10^−3 | type of binding spectra (P450 2A6 [4]; difference spectra): Type I | effect of preincubation on inhibition potency of coumarin 7-hydroxylation (P450 2A13): did not change the inhibition potencies

N#C[Se]Cc1cccc(C[Se]C#N)c1 [m-XSC, 1,3-phenylenebis(methylene)selenocyanate]
metabolism-dependent inhibition of P450 1B1 (EROD) (P450 1B1 [1]; m-XSC 0.033, 0.083, 0.33 µM, preincubation 2 and 4 min with NADPH): no metabolism-dependent inhibition | Kd (P450 1A1): 30 ± 4.5 µM | ΔAmax/Ks (P450 1A1): 0.60 × 10^−3 | ΔAmax (P450 1A1): 18 ± 1.2 × 10^−3 | IC50 (P450 2A6 [2]): 2.4 ± 0.19 µM | Kd (P450 1A2): 13 ± 1.9 µM | ΔAmax/Ks (P450 1A2): 0.46 × 10^−3 | ΔAmax (P450 1A2): 5.8 ± 0.25 × 10^−3 | Kd (P450 1B1 [3]): 5.7 ± 1 µM | ΔAmax/Ks (P450 1B1 [3]): 3.70 × 10^−3 | ΔAmax (P450 1B1 [3]): 21 ± 1.0 × 10^−3 | type of binding spectra (P450 1B1 [3]; difference spectra): Reverse Type I | Kd (P450 2A6 [4]): 5.7 ± 0.52 µM | ΔAmax/Ks (P450 2A6 [4]): 6.50 × 10^−3 | ΔAmax (P450 2A6 [4]): 37 ± 0.88 × 10^−3 | effect of preincubation on inhibition potency of coumarin 7-hydroxylation (P450 2A13; preincubation 15 min with NADPH vs without): did not change the inhibition potencies | coumarin 7-hydroxylation, % of control (P450 2A13; with preincubation 15 min with NADPH, 1.0 µM coumarin, BSC 1.2 µM, m-XSC 0.22 µM): 54 % of control | coumarin 7-hydroxylation, % of control (P450 2A13; without preincubation, 1.0 µM coumarin, BSC 1.2 µM, m-XSC 0.22 µM): 56 % of control | coumarin 7-hydroxylation (P450 2A13; without preincubation, 1.0 µM coumarin, BSC 1.2 µM, m-XSC 0.22 µM, control 1.04): 0.59 nmol/min/nmol P450
